# Legend:
# IL-10 = assay: (A3) Anti-CD3/CD28 antibody-stimulated cytokine production inhibitory activity in PBMC, ELISA: IL-10; assay type: cell-based; conditions: Homo sapiens, anti-CD3 and anti-CD28 antibodies, 24-hr culture supernatant
# Procedure: (A3) Anti-CD3/CD28 antibody-stimulated TNF α production inhibitory activity in human peripheral blood monocytes (PBMC)
# [Method] Monocytes isolated from healthy adult male volunteers were cultured and stimulated with anti-CD3 and anti-CD28 antibodies and the amounts of TNF, INF, 1L-2, IL-4 and IL-10 in the 24-hr culture supernatant were determined by ELISA.
# [1] = tested on: DGalN/LPS-induced rat hepatitis model; assay: (B1) DGalN/LPS-induced rat hepatitis model; assay type: in vivo, Wistar rats; conditions: oral, 24 hr after DGalN/LPS
# Procedure: (B1) DGalN/LPS-induced rat hepatitis model
# [Method] Male Wistar rats aged 12 weeks were deprived of food for 24 hours and dosed orally with the drug or the solvent vehicle in predetermined doses. Immediately thereafter, saline was administered from the tail vein to the NORMAL group and D-galactosamine hydrochloride (DGalN) (300 mg/kg)/LPS (0.32 µg/kg) was administered similarly to the CONTROL and DRUG groups. At 24 hr after administration of DGaIN/LAS, the blood was drawn and the liver isolated. Using the blood, liver-derived enzymes (ALT and AST) in plasma were assayed. The liver was fixed in formalin and phathological specimens were prepared. Histopathological findings (inflammatory cell infiltration and liver cell necrosis) were evaluated.
# [2] = tested on: P. acnes/LPS-induced mouse hepatitis model; assay: (B4) P. acnes/LPS-induced mouse hepatitis model; assay type: in vivo, ICR mice; conditions: oral, 9 hours after administration of the drug
# Procedure: (B4) P. acnes/LPS-induced mouse hepatitis model
# [Method] Propionibacterium acnes (P. acnes) killed by heat treatment was lyophilized and used in the experiment. To 7-week-old male ICR mice, either saline or P. acnes, 0.6 mg/0.2 ml/mouse, was administered intravenously. After 7 days, the drug or the solvent vehicle was administered orally in predetermined doses to the animals deprived of food for 20 hours. At. 9 hours after administration of the drug, the blood was drawn and the liver-derived enzymes (ALT and AST) in plasma were assayed.
# [3] = tested on: Arachidonic acid-induced ear edema model; assay: (B7) Atopy, Method 1: arachidonic acid-induced ear edema model; assay type: in vivo, Balb/c mice; conditions: oral 30 minutes before arachidonic acid; auricle thickness after 1 hour
# Procedure: [Method 1] Arachidonic acid-induced ear edema model:
# To the left auricle of Balb/c mice, 2 mg/ear of arachidonic acid was applied to induce a skin inflammation. After 1 hour, the thickness of the auricle was measured with a peacock dial thickness gage and used as an indicator of skin inflammation. The drug was administered orally 30 minutes before application of arachidonic acid.
# [4] = tested on: mouse model of NC/NGa dermatitis; assay: (B7) Atopy, Method 2: spontaneous atopic dermatitis model; assay type: in vivo; conditions: oral once daily for 17 consecutive days
# Procedure: [Method 2] Spontaneous atopic dermatitis mode:
# In the mouse model of NC/NGa dermatitis, the drug was administered orally once daily for 17 consecutive days.
smiles,measurement,setting,value
"CS(=O)(=O)O.O.O.O=C(Nc1cccc(-n2c(=O)c(Cc3cccnc3)nc3cccnc32)c1)c1cc(Cl)cc(Cl)c1 [Example 2, 4-(3-(3,5-dichlorobenzoylamino)phenyl)-2-(3-pyridyl)methyl-3-oxo-3,4-dihydropyrido[2,3-b]pyrazine methanesulfonate dihydrate]",IC50,IL-10,59.7 nM
same,elevation of blood ALT,[1],significantly inhibited
same,elevation of blood AST,[1],significantly inhibited
same,inflammatory cell infiltration,[1]; histopathology,inhibited
same,liver cell necrosis,[1]; histopathology,inhibited
same,elevation of blood ALT,[2],significantly inhibited
same,elevation of blood AST,[2],significantly inhibited
same,ear edema,[3],significantly inhibited
same,disease state-ameliorating effect,[4],significant disease state-ameliorating effect

# From EP1118615A1, “NOVEL SALTS OF PYRIDOPYRAZINE COMPOUND AND CRYSTALS THEREOF” (FUJISAWA PHARMACEUTICAL CO., LTD., priority 1998, dated 2000)
